Assay results: ChEMBL document CHEMBL6182838, “Structure-activity relationship expansion and microsomal stability assessment of the 2-morpholinobenzoic acid scaffold as antiproliferative phosphatidylcholine-specific phospholipase C inhibitors” (RSC Med Chem, 2025)

Tests used:
[1] = test system: MDA-MB-231; experiment: Antiproliferative activity against human MDA-MB-231 cells assessed as cell proliferation at 10 uM measured after 3 days incubation followed by incubated 5 hrs with [3H]-thymidine by 3H-thymidine incorporation assay relative to control; type: functional; conditions: MDA-MB-231, 72 h, time 3 day, read-out: Activity
[2] = test system: HCT-116; experiment: Antiproliferative activity against human HCT-116 cells assessed as cell proliferation at 10 uM measured after 3 days incubation followed by incubated 5 hrs with [3H]-thymidine by 3H-thymidine incorporation assay relative to control; type: functional; conditions: HCT-116, 72 h, time 3 day, read-out: Activity
[3] = Metabolic stability in Sprague-Dawley rat microsomes assessed as degradation in absence of NADPH at 10 uM measured up to 60 mins by HPLC analysis; type: ADME, Microsome
[4] = test system: MDA-MB-231; experiment: Antiproliferative activity against human MDA-MB-231 cells assessed as cell proliferation measured after 3 days incubation followed by incubated 5 hrs with [3H]-thymidine by 3H-thymidine incorporation assay; type: functional, cell-based
[5] = test system: HCT-116; experiment: Antiproliferative activity against human HCT-116 cells assessed as cell proliferation measured after 3 days incubation followed by incubated 5 hrs with [3H]-thymidine by 3H-thymidine incorporation assay; type: functional, cell-based
[6] = test system: Bacillus cereus; experiment: Inhibition of Bacillus cereus phosphatidylcholine specific phospholipase C (PC-PLC BC) assessed as enzyme activity by measuring formation of resorufin fluorophore 10 uM by Amplex-Red based fluorescence assay relative to control; parameters: scale not given: the % may be the effect or the level left
[7] = Metabolic stability in Sprague-Dawley rat microsomes assessed as degradation in presence of NADPH at 10 uM measured after 1 hr by HPLC analysis; type: ADME, Microsome
[8] = Metabolic stability in Sprague-Dawley rat microsomes assessed as degradation in presence of NADPH at 10 uM measured up to 60 mins by HPLC analysis; type: ADME, Microsome

SMILES	growth at 10 µM [1] [%]	growth at 10 µM [2] [%]	Activity [6] [%]	also measured
CN(Cc1ccccc1Cl)c1ccc(N2CCOCC2)c(C(=O)O)c1	95.5	87.8	–	% remaining at 1 h, 10 µM ([3]; Sprague-Dawley, rat microsomes): 94%
O=C(NO)c1cc(NCc2cccc(Br)c2)ccc1N1CCOCC1	–	1.9	–	IC50 [4]: 3.3 µM; IC50 [5]: 5.8 µM
O=C(O)c1ccc(NCc2ccccc2Cl)cc1N1CCOCC1	88	87.6	50.8	Stability [7]: Stable
O=C(O)c1cc(NCc2ccccc2Cl)ccc1N1CCOCC1	–	–	–	metabolised at 1 h, 10 µM ([8]; Sprague-Dawley, rat microsomes, read-out: Drug degradation): 17%
CCOc1ccc2ccc(=O)oc2c1 [ETHOXYCOUMARIN]	–	–	–	Stability ([8]; microsomes, 1 h, 10 µM): Unstable; Stability ([3]; microsomes, 1 h, 10 µM): Stable
O=C(NO)c1cc(NCc2ccccc2Cl)ccc1N1CCOCC1	11.7	2	–	IC50 [4]: 2.9 µM; IC50 [5]: 4.9 µM
O=C(NO)c1ccc(NCc2cccc(F)c2)cc1N1CCOCC1	76.2	84.3	49.1	–
COC(=O)c1cc(NCc2ccc(Cl)cc2)ccc1C1CCOCC1	83.8	56.7	112	–
O=C(O)c1cc(NCc2ccccc2)ccc1C1CCOCC1	107	99.8	54	–
O=C(NO)c1ccc(NCc2cccc(Br)c2)cc1N1CCOCC1	25.3	32.3	45.3	–
COC(=O)c1ccc(NCc2ccc(Cl)cc2)cc1N1CCOCC1	70.3	43.8	41.3	–
O=C(NO)c1cc(NCc2ccccc2Cl)ccc1C1CCOCC1	86.8	86.7	82.8	–
CN(Cc1ccccc1Cl)c1ccc(N2CCOCC2)c(C(=O)NO)c1	4.3	4.8	–	IC50 [4]: 1.1 µM; IC50 [5]: 3.4 µM
COC(=O)c1cc(NCc2ccc(Br)cc2)ccc1C1CCOCC1	79.6	61.2	110	–
COC(=O)c1ccc(NCc2ccccc2OC)cc1N1CCOCC1	73.6	55.5	104	–
O=C(O)c1cc(NCc2ccc(Br)cc2)ccc1C1CCOCC1	102	104	105	–
COC(=O)c1ccc(NCc2ccccc2Cl)cc1N1CCOCC1	70.4	43.2	75.9	–
COc1cccc(CNc2ccc(C3CCOCC3)c(C(=O)NO)c2)c1	89.2	94.4	80.6	–

SMILES	growth at 10 µM [1] [%]	growth at 10 µM [2] [%]	Activity [6] [%]	also measured
O=C(NO)c1ccc(NCc2ccc(Cl)cc2)cc1N1CCOCC1	45.5	57.4	54.4	–
COC(=O)c1ccc(NCc2ccccc2)cc1N1CCOCC1	95.2	85.4	102	–
O=C(O)c1ccc(NCc2cccc(Br)c2)cc1N1CCOCC1	104	101	95.8	–
O=C(NO)c1cc(NCc2ccc(F)cc2)ccc1C1CCOCC1	86.6	91.6	93.7	–
O=C(O)c1cc(NCc2ccccc2Cl)ccc1C1CCOCC1	111	101	107	Stability [7]: Stable
O=C(O)c1cc(NCc2cccc(Br)c2)ccc1C1CCOCC1	107	104	113	–
O=C(O)c1ccc(NCc2ccccc2)cc1N1CCOCC1	96.8	92.4	96.6	–
COc1ccccc1CNc1ccc(C(=O)O)c(N2CCOCC2)c1	92.6	102	105	–
COC(=O)c1cc(NCc2ccc(OC)cc2)ccc1C1CCOCC1	71.2	54.5	75.4	–
COc1cccc(CNc2ccc(C3CCOCC3)c(C(=O)O)c2)c1	104	101	106	–
O=C(NO)c1ccc(NCc2ccccc2Br)cc1N1CCOCC1	30	54.5	54.7	–
COC(=O)c1ccc(NCc2ccc(F)cc2)cc1N1CCOCC1	81.9	65	80.3	–
O=C(NO)c1cc(NCc2cccc(Br)c2)ccc1C1CCOCC1	77.6	78.8	75.2	–
COC(=O)c1ccc(NCc2cccc(Cl)c2)cc1N1CCOCC1	68.9	44.3	55.8	–
O=C(NO)c1ccc(NCc2ccccc2)cc1N1CCOCC1	85.7	89.7	43.4	–
COc1cccc(CNc2ccc(C(=O)O)c(N3CCOCC3)c2)c1	101	103	106	–
O=C(NO)c1ccc(NCc2cccc(Cl)c2)cc1N1CCOCC1	39.6	48.6	47.5	–
